Measured values reported in the kinase profiling compilation of Christmann-Franck et al. (2016).

Key:
Assay in all cases: radiometric filter-binding kinase assay, Kinase HotSpot
Details in all cases: compound 0.5 µM; ATP 10 µM
[1] = tested on: FLT4 (human), P35916 [Q890H]
[2] = tested on: MKNK1 (human), Q9BUB5 [T385D; 165-205 del]
[3] = tested on: PRKCQ (human), Q04759 [P330L]
[4] = tested on: MAP2K6 (human), P52564 [S207E/T211E]
Chain of MAP2K6 (human), P52564 [S207E/T211E] (P52564 whole entry S207E/T211E, looked up): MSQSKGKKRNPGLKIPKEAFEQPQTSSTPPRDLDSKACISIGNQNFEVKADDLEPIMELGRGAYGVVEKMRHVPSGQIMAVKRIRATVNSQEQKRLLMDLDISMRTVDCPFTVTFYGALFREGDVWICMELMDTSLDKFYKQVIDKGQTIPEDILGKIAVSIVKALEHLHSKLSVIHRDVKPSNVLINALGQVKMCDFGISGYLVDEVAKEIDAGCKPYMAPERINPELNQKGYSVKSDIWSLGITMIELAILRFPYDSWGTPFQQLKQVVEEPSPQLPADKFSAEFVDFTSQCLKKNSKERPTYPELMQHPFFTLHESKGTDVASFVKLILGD

Chain of PRKCQ (human), Q04759 [P330L] (Q04759 whole entry P330L, looked up): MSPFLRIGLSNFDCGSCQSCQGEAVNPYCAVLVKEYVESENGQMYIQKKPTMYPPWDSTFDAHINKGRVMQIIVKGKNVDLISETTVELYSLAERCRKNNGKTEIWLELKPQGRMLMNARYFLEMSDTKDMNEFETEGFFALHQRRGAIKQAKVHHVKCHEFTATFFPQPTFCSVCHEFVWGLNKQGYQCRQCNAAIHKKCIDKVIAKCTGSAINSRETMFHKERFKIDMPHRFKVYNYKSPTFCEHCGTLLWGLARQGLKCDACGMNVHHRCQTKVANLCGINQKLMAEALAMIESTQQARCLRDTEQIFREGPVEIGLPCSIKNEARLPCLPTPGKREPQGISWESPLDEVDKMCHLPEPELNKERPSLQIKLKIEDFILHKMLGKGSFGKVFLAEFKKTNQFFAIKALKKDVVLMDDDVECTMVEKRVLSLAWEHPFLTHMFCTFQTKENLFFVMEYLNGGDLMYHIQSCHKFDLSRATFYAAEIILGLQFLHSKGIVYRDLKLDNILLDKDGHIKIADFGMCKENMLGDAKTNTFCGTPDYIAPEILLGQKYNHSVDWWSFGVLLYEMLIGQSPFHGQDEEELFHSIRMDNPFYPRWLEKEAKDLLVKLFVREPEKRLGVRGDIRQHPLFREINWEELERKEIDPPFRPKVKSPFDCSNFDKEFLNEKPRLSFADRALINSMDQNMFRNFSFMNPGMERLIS
Chain of MKNK1 (human), Q9BUB5 [T385D; 165-205 del] (Q9BUB5 whole entry, looked up, stated change not applied): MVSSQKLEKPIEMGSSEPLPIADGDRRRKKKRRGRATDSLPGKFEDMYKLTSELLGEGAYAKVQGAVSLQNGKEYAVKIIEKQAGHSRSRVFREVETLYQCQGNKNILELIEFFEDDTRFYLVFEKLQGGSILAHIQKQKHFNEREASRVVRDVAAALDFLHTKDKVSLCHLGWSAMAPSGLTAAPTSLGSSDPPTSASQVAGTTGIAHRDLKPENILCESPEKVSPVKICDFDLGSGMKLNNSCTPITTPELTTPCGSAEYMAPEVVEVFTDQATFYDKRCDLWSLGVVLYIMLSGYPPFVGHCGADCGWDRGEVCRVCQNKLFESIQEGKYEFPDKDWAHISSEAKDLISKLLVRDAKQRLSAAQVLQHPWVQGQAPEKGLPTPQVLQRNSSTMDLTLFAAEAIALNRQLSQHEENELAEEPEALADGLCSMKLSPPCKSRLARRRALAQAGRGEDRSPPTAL
Chain of FLT4 (human), P35916 [Q890H] (P35916 whole entry, looked up, stated change not applied): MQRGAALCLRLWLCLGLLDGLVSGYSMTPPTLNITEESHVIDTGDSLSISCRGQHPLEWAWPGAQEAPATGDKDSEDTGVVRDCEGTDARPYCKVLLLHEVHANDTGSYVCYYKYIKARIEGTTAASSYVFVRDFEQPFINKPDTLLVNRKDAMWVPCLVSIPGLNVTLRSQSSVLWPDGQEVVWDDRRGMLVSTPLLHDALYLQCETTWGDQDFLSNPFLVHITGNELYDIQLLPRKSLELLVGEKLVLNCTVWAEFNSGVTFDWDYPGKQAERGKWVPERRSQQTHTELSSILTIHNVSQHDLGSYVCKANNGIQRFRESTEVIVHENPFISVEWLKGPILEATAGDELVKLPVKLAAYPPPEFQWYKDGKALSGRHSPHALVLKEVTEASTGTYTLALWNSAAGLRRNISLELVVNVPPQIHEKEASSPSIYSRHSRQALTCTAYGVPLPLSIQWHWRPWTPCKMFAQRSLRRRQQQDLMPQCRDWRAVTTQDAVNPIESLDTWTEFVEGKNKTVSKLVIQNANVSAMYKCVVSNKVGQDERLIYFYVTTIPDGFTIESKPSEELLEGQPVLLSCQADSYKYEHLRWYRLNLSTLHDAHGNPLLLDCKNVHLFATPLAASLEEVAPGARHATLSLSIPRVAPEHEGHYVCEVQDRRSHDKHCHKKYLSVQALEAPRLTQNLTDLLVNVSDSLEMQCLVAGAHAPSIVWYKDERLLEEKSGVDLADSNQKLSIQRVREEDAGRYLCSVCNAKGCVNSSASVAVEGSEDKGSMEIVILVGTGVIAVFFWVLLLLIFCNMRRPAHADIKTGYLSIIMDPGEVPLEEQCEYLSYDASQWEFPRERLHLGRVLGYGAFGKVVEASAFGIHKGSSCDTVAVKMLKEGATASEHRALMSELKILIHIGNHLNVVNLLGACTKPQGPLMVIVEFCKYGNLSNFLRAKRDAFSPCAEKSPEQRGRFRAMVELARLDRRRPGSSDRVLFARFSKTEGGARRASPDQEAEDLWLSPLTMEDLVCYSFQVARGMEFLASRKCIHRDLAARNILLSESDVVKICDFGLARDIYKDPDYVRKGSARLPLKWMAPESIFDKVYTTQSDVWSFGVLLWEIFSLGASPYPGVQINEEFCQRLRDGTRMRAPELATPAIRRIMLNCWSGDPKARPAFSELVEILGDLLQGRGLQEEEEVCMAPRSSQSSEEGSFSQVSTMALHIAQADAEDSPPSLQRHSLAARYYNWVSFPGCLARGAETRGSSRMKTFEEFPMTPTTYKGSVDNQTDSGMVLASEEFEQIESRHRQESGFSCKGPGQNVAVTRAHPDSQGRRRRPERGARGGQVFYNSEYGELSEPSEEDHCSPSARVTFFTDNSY

Q: With `O=C(Nc1cccc(Nc2nccc(Nc3cccc(C(F)(F)F)c3)n2)c1)C1CC1` as the compound, how does the residual activity [1] read?
A: 95.9%

Q: And the residual activity [2]?
A: 91%

Q: What about the residual activity [3] of the same compound?
A: 107%

Q: And the residual activity [4]?
A: 98.3%

Q: Which residual activity [1] does the source give for `Nc1ncnc2[nH]nc(Nc3ccc(F)cc3)c12` here?
A: 92.9%

Q: What about the residual activity [2] of the same compound?
A: 75.2%

Q: And the residual activity [3]?
A: 103%

Q: What about the residual activity [4] of the same compound?
A: 87.6%

Q: How did the residual activity [1] turn out when `Nc1nc(Nc2ccc(S(N)(=O)=O)cc2)nn1C(=S)Nc1c(F)cccc1F` was run?
A: 3.75%

Q: And the residual activity [2]?
A: 23.4%

Q: And the residual activity [3]?
A: 15.1%

Q: And the residual activity [4]?
A: 62.7%

Q: What does the source list for `Cc1ccc(NC2=CC(=O)c3sc(C)nc3C2=O)cc1`?
A: residual activity [1]: 95.7%; residual activity [2]: 117%; residual activity [3]: 93%; residual activity [4]: 90.4%

Q: What does the source list for `CCOC(=O)c1c(C)[nH]c(/C=C2\C(=O)Nc3ccccc32)c1C`?
A: residual activity [1]: 79.2%; residual activity [2]: 112%; residual activity [3]: 116%; residual activity [4]: 96.5%

Q: What does the source list for `O=C1Nc2ccccc2/C1=C\c1c(Cl)[nH]c2ccccc12`?
A: residual activity [1]: 108%; residual activity [2]: 105%; residual activity [3]: 91.7%; residual activity [4]: 93.4%

Q: For `Clc1ccc(Nc2nnc(Cc3ccncc3)c3ccccc23)cc1`, which residual activity [1] is on record?
A: 62.8%

Q: What about the residual activity [2] of the same compound?
A: 98.5%

Q: And the residual activity [3]?
A: 73.5%

Q: And the residual activity [4]?
A: 95.3%

Q: `COc1cc2c(cc1OC)-c1[nH]nc(Nc3cccc(F)c3)c1C2` was tested. Which residual activity [1] did it give?
A: 82.6%

Q: And the residual activity [2]?
A: 89.8%

Q: What about the residual activity [3] of the same compound?
A: 108%

Q: What about the residual activity [4] of the same compound?
A: 87%

Q: With `FC(F)(F)c1ccc(/C=C/c2nc(COc3ccc(CCCCn4ccnn4)cc3)co2)cc1` as the compound, how does the residual activity [1] read?
A: 98%

Q: What about the residual activity [2] of the same compound?
A: 89.5%

Q: And the residual activity [3]?
A: 99.9%

Q: What about the residual activity [4] of the same compound?
A: 100%

Q: Which results are given for `O=C1NC(=O)c2cc(Nc3ccc(F)cc3)c(Nc3ccc(F)cc3)cc21`?
A: residual activity [1]: 102%; residual activity [2]: 103%; residual activity [3]: 98.7%; residual activity [4]: 110%

Q: For `Cc1[nH]c(/C=C2\C(=O)Nc3ccc(S(=O)(=O)N(C)c4cccc(Cl)c4)cc32)c(C)c1C(=O)N1CCN(C)CC1`, which residual activity [1] is on record?
A: 55.1%

Q: What about the residual activity [2] of the same compound?
A: 105%

Q: What about the residual activity [3] of the same compound?
A: 107%

Q: And the residual activity [4]?
A: 91.9%

Q: How did the residual activity [1] turn out when `O=C1NC(=O)C(c2c[nH]c3ccccc23)=C1c1c[nH]c2ccccc12` was run?
A: 35.2%

Q: And the residual activity [2]?
A: 115%

Q: What about the residual activity [3] of the same compound?
A: 33.8%

Q: What about the residual activity [4] of the same compound?
A: 98%

Q: What does the source list for `O=C1Nc2ccccc2/C1=C1\Nc2ccccc2\C1=N/O`?
A: residual activity [1]: 53%; residual activity [2]: 99.6%; residual activity [3]: 99.1%; residual activity [4]: 83.5%

Q: How did the residual activity [1] turn out when `O=c1cc(-c2cccc3c2Sc2ccccc2S3)oc(N2CCOCC2)c1` was run?
A: 104%

Q: What about the residual activity [2] of the same compound?
A: 99.5%

Q: And the residual activity [3]?
A: 112%

Q: What about the residual activity [4] of the same compound?
A: 107%

Q: How did the residual activity [1] turn out when `N/C(=N\N=C/c1ccc(-c2cccc([N+](=O)[O-])c2)o1)N[N+](=O)[O-]` was run?
A: 86.3%

Q: And the residual activity [2]?
A: 97.4%

Q: What about the residual activity [3] of the same compound?
A: 94.6%

Q: What about the residual activity [4] of the same compound?
A: 111%

Q: For `O=C1Nc2ccc(Cl)cc2/C1=C/c1cc(Cl)c(O)c(Cl)c1`, which residual activity [1] is on record?
A: 87.3%

Q: What about the residual activity [2] of the same compound?
A: 103%

Q: What about the residual activity [3] of the same compound?
A: 105%

Q: And the residual activity [4]?
A: 96.4%

Q: How did the residual activity [1] turn out when `O=C(Nc1ccc(Cl)cc1)c1ccccc1NCc1ccncc1` was run?
A: 44.8%

Q: What about the residual activity [2] of the same compound?
A: 118%

Q: And the residual activity [3]?
A: 110%

Q: And the residual activity [4]?
A: 117%

Q: For `COc1cc2ncnc(Nc3ccc(O)c(Br)c3)c2cc1OC`, which residual activity [1] is on record?
A: 48.5%

Q: What about the residual activity [2] of the same compound?
A: 32.7%

Q: What about the residual activity [3] of the same compound?
A: 92.8%

Q: What about the residual activity [4] of the same compound?
A: 84.9%

Q: Which results are given for `CCN(CC)CCNC(=O)c1c(C)[nH]c(/C=C2\C(=O)Nc3ccc(Cl)cc32)c1C`?
A: residual activity [1]: 12.1%; residual activity [2]: 75.4%; residual activity [3]: 105%; residual activity [4]: 86.2%

Q: With `Nc1ncnc2c1c(-c1ccc(Oc3ccccc3)cc1)cn2C1CCCC1` as the compound, how does the residual activity [1] read?
A: 50.8%

Q: And the residual activity [2]?
A: 109%

Q: And the residual activity [3]?
A: 131%

Q: And the residual activity [4]?
A: 99.3%

Q: For `O=C1NC(=O)C(c2cn(CCCO)c3ncccc23)=C1c1cnccn1`, which residual activity [1] is on record?
A: 92.3%

Q: And the residual activity [2]?
A: 100%

Q: What about the residual activity [3] of the same compound?
A: 81.7%

Q: What about the residual activity [4] of the same compound?
A: 91.1%

Q: `Cc1cc2ncc(-c3ccccc3)nc2cc1C` was tested. Which residual activity [1] did it give?
A: 115%

Q: What about the residual activity [2] of the same compound?
A: 80.3%

Q: And the residual activity [3]?
A: 97%

Q: What about the residual activity [4] of the same compound?
A: 91.1%

Q: `O=C(CCCc1ccc(-c2ccccc2F)cc1)Nc1ccc(O)cc1` was tested. Which residual activity [1] did it give?
A: 99.3%

Q: And the residual activity [2]?
A: 111%

Q: And the residual activity [3]?
A: 107%

Q: What about the residual activity [4] of the same compound?
A: 97.5%

Q: With `Nc1n[nH]c2nnc(-c3c(-c4ccccc4)nn4ccccc34)cc12` as the compound, how does the residual activity [1] read?
A: 89.9%

Q: What about the residual activity [2] of the same compound?
A: 98.5%

Q: And the residual activity [3]?
A: 79.9%

Q: And the residual activity [4]?
A: 90.9%

Q: What does the source list for `O=C1NC(=O)C(c2cn(CCCn3ccnc3)c3ccccc23)=C1Nc1ccccc1`?
A: residual activity [1]: 95.8%; residual activity [2]: 99.3%; residual activity [3]: 37.2%; residual activity [4]: 103%

Q: `O=S(=O)(NCCNC/C=C/c1ccc(Br)cc1)c1cccc2cnccc12` was tested. Which residual activity [1] did it give?
A: 108%

Q: And the residual activity [2]?
A: 93.4%

Q: And the residual activity [3]?
A: 104%

Q: What about the residual activity [4] of the same compound?
A: 81.3%

Q: For `COc1cc2c(Nc3ccc(Br)cc3F)ncnc2cc1OCC1CCN(C)CC1`, which residual activity [1] is on record?
A: 16.1%

Q: What about the residual activity [2] of the same compound?
A: 49.3%

Q: What about the residual activity [3] of the same compound?
A: 100%

Q: What about the residual activity [4] of the same compound?
A: 96.2%

Q: How did the residual activity [1] turn out when `COc1cc2ncc(-c3ccccc3)nc2cc1OC` was run?
A: 90.4%

Q: And the residual activity [2]?
A: 104%

Q: And the residual activity [3]?
A: 101%

Q: And the residual activity [4]?
A: 94.9%

Q: Which results are given for `Cn1cnc2cc3c(Nc4cccc(Br)c4)ncnc3cc21`?
A: residual activity [1]: 89.7%; residual activity [2]: 39.9%; residual activity [3]: 96.9%; residual activity [4]: 104%

Q: Which residual activity [1] does the source give for `CCN1/C(=C/C(C)=O)Sc2ccc(OC)cc21` here?
A: 99.7%

Q: And the residual activity [2]?
A: 119%

Q: And the residual activity [3]?
A: 95.9%

Q: What about the residual activity [4] of the same compound?
A: 86.7%

Q: For `COc1cc2ncnc(Nc3ccc(F)c(Cl)c3)c2cc1OCCCN1CCOCC1`, which residual activity [1] is on record?
A: 92.2%

Q: What about the residual activity [2] of the same compound?
A: 41.9%

Q: And the residual activity [3]?
A: 85.9%

Q: And the residual activity [4]?
A: 90.1%

Q: Which residual activity [1] does the source give for `COc1ccc2c(c[n+](C)c3c4cc5c(cc4ccc23)OCO5)c1OC` here?
A: 97.6%

Q: What about the residual activity [2] of the same compound?
A: 102%

Q: And the residual activity [3]?
A: 99.9%

Q: What about the residual activity [4] of the same compound?
A: 95%

Q: `O=C1NC(=O)/C(=C\c2ccc3nccnc3c2)S1` was tested. Which residual activity [1] did it give?
A: 108%

Q: What about the residual activity [2] of the same compound?
A: 96.5%

Q: What about the residual activity [3] of the same compound?
A: 92.8%

Q: What about the residual activity [4] of the same compound?
A: 91.2%

Q: Which results are given for `CC(C)N(CCC(=O)c1ccc2ccccc2c1)Cc1ccccc1`?
A: residual activity [1]: 94%; residual activity [2]: 105%; residual activity [3]: 122%; residual activity [4]: 93.2%

Q: `Nc1ncnc2c1cnn2-c1ccccc1` was tested. Which residual activity [1] did it give?
A: 108%

Q: And the residual activity [2]?
A: 81.4%

Q: And the residual activity [3]?
A: 102%

Q: What about the residual activity [4] of the same compound?
A: 90.8%

Q: How did the residual activity [1] turn out when `Cc1cc(Nc2nc(-c3ccccc3)nc3ccccc23)n[nH]1` was run?
A: 44.9%

Q: And the residual activity [2]?
A: 93.5%

Q: And the residual activity [3]?
A: 82.3%

Q: And the residual activity [4]?
A: 93.2%

Q: For `CC(C)(C)c1nc2c3ccc(F)cc3c3c(=O)[nH]ccc3c2[nH]1`, which residual activity [1] is on record?
A: 71.2%

Q: And the residual activity [2]?
A: 101%

Q: And the residual activity [3]?
A: 66.8%

Q: And the residual activity [4]?
A: 89%

Q: For `Cc1ccc(S(=O)(=O)/C=C/C#N)cc1`, which residual activity [1] is on record?
A: 96.5%

Q: What about the residual activity [2] of the same compound?
A: 99.4%

Q: What about the residual activity [3] of the same compound?
A: 100%

Q: And the residual activity [4]?
A: 98.4%

Q: For `COc1cc2nccc(Oc3ccc(NC(=S)NC(=O)c4ccccc4C)cc3)c2cc1OC`, which residual activity [1] is on record?
A: 73.8%

Q: And the residual activity [2]?
A: 93.2%

Q: And the residual activity [3]?
A: 107%

Q: And the residual activity [4]?
A: 94.9%

Q: Which residual activity [1] does the source give for `O=C(c1ccccc1)c1ccc(N2CCOCC2)cc1O` here?
A: 112%

Q: And the residual activity [2]?
A: 103%

Q: And the residual activity [3]?
A: 92.5%

Q: What about the residual activity [4] of the same compound?
A: 93.5%

Q: `N#CC(C#N)=C(N)/C(C#N)=C/c1ccc(O)cc1` was tested. Which residual activity [1] did it give?
A: 95.9%

Q: And the residual activity [2]?
A: 77.2%

Q: And the residual activity [3]?
A: 99.8%

Q: What about the residual activity [4] of the same compound?
A: 94%

Q: Which residual activity [1] does the source give for `O=c1cc(N2CCOCC2)oc2c(-c3ccccc3)cccc12` here?
A: 96.4%

Q: What about the residual activity [2] of the same compound?
A: 103%

Q: And the residual activity [3]?
A: 112%

Q: What about the residual activity [4] of the same compound?
A: 97.5%

Q: What does the source list for `CNc1cc2c(Nc3cccc(Br)c3)ncnc2cn1`?
A: residual activity [1]: 97%; residual activity [2]: 55.2%; residual activity [3]: 110%; residual activity [4]: 94.5%
